Assay results as given in patent US12383578B2, “Carbazate-activated polyvinyl alcohol (PVAC) as a polymer-based antitumoral agent” (CREMED AB (PUBL), priority 2019, dated 2025).

Experiments:
[1] = test system: GIST-T1 cells; assay: Cell viability assay (CellTiter-Glo, ATP-based); set-up: species or system human; conditions: biologically relevant concentrations
Experimental: 0.25×10^4-1×10^4 GIST-T1 cells were seeded into each well in a 96-well plate. PVAC, EC, and PVA were added into each well or vehicle (deionized water) with subsequent incubation for 24 or 48 hours. CellTiter-Glo assay (Promega, MI, USA) is an ATP-based luminometric method that was performed according to protocol. In brief, cells were removed from incubator to allow adjust to room temperature after which 100 μL of room temperature CellTiter-Glo was added to each well. The plates were put on a shaker for 5-10 min. Cells rested for 5-10 min before measurement on an EnVision 2103 Multilabel Reader (Perkin Elmer, MA, USA).

[2] = test system: MDA-MB-231 tumor cells; conditions: mouse, in vivo
Experimental: Following injection of MDA-MB-231 cells into athymic nude mice the animals were monitored twice weekly recording weight, general health and tumor size. When the average tumor size was approximately 100 μL the animals were stratified into three groups of 12 mice per group based on tumor size. All three groups were subjected to 28 days of twice-weekly intra/peri tumoral injections at a volume of 100 μL per injection. One group served as a control group and received NaCl (vehicle) injections. The remaining two groups received different doses of PVAC, as described above. The animals were euthanized on Day 29 and the tumors were excised, weighed, and divided into two parts handled as described above.

Animals euthanized due to infections [2]	Compound	Cellular viability [1]
	CCOC(=O)NN [EC, ethyl carbazate]	did not reduce cellular viability
four	Poly[1-hydroxyethylene)-ran-(1-hydrazinecarboxylatoethylene)] [PVAC]	
